Data on 19 compounds can be found in patent publication US20260062422A1 (Halda Therapeutics OpCo, Inc., priority 2022, published 2026).

The structures appear in SMILES notation.

Test [1] has as its target T1, BRD4-BD1 (Homo sapiens, UniProt O60885).
T1 construct: made in house; host or cells: T7 phage grown in an E. coli host derived from BL21
The test can be described thus: bromoKdELECT assay for binding affinity to BRD4-BD1. The note with it: Table 6. As to the method:
Compounds were tested using a bromoKdELECT assay. T7 phage strains displaying bromodomains were grown in parallel in 24-well blocks in an E. coli host derived from the BL21 strain. E. coli were grown to log-phase and infected with T7 phage from a frozen stock (multiplicity of infection=0.4) and incubated with shaking at 32° C. until lysis (90-150 minutes). The lysates were centrifuged (5,000×g) and filtered (0.2 μm) to remove cell debris. Streptavidin-coated magnetic beads were treated with biotinylated small molecule or acetylated peptide ligands for 30 minutes at room temperature to generate affinity resins for bromodomain assays. The liganded beads were blocked with excess biotin and washed with blocking buffer (SeaBlock (Pierce), 1% BSA, 0.05% Tween 20, 1 mM DTT) to remove unbound ligand and to reduce nonspecific phage binding. Binding reactions were assembled by combining bromodomains, liganded affinity beads, and test compounds in 1× binding buffer (17% SeaBlock, 0.33×PBS, 0.04% Tween 20, 0.02% BSA, 0.004% Sodium azide, 7.4 mM DTT). Test compounds were prepared as 1000× stocks in 100% DMSO. Kds were determined using an 11-point 3-fold compound dilution series with one DMSO control point. All compounds for Kd measurements are distributed by acoustic transfer (non-contact dispensing) in 100% DMSO. The compounds were then diluted directly into the assays such that the final concentration of DMSO was 0.09%. All reactions performed in polypropylene 384-well plates. Each was a final volume of 0.02 ml. The assay plates were incubated at room temperature with shaking for 1 hour and the affinity beads were washed with wash buffer (1×PBS, 0.05% Tween 20). The beads were then resuspended in elution buffer (1×PBS, 0.05% Tween […] non-biotinylated affinity ligand) and incubated at room temperature with shaking for 30 minutes. The bromodomain concentration in the eluates was measured by qPCR.

Test [2] relates to T47D cells. Put plainly: Cellular growth inhibition assay for T47D cells, CellTiter-Glo. Type of test: cell-based, human. Conditions: Homo sapiens, T47D, 72 h, 72 hours treatment, CellTiter-Glo 2.0 cell viability. The procedure, abridged:
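Luminescence from CellTiter-Glo 2.0 after 72 h of compound exposure gives the viability signal. Cells grew in insulin-supplemented (0.2 units/mL) DMEM with 10% FBS and were treated one day after seeding at 0.5% DMSO. GI50 values come from four-parameter nonlinear regression.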
In general terms: ATP-based viability assays read luminescence as a measure of living cells.

In test [1], `CCNC(=O)C[C@@H]1N=C(c2ccc(OCCOC3CCN(c4ncc(C(=O)N[C@H]5C(C)(C)[C@H](Oc6ccc(C#N)c(Cl)c6)C5(C)C)cn4)CC3)c(F)c2)c2c(sc(C)c2C)-n2c(C)nnc21` [Compound I-76] came in with a Kd of 500 to 2500 nM. In test [2], this compound showed a GI50 of 500 to 1500 nM.
In the same order, the values of `Cc1sc2c(c1C)C(c1ccc(CCCOC3CCN(c4ncc(C(=O)N[C@H]5C(C)(C)[C@H](Oc6ccc(C#N)c(Cl)c6)C5(C)C)cn4)CC3)cc1)=N[C@@H](Cc1ncco1)c1nnc(C)n1-2` [Compound I-131, N-[3-(3-chloro-4-cyano-phenoxy)-2,2,4,4-tetramethyl-cyclobutyl]-2-[4-[3-[4-[(9S)-4,5,13-trimethyl-9-(oxazol-2-ylmethyl)-3-thia-1,8,11,12-tetrazatricyclo[8.3.0.02,6]trideca-2(6),4,7,10,12-pentaen-7-yl]phenyl]propoxy]-1-piperidyl]pyrimidine-5-carboxamide] are more than 2500 nM and less than 500 nM.
On the same counts, the results for `CCN(C)C(=O)C[C@@H]1N=C(c2ccc(OCCOC3CCN(c4ncc(C(=O)N[C@H]5C(C)(C)[C@H](Oc6ccc(C#N)c(Cl)c6)C5(C)C)cn4)CC3)cc2)c2c(sc(C)c2C)-n2c(C)nnc21` [Compound I-66] are 500 to 2500 nM and 500 to 1500 nM.
In the same order, the values of `CCN(C)C(=O)C[C@@H]1N=C(c2ccc(CCCOC3CCN(c4ncc(C(=O)N[C@H]5C(C)(C)[C@H](Oc6ccc(C#N)c(Cl)c6)C5(C)C)cn4)CC3)cc2)c2c(sc(C)c2C)-n2c(C)nnc21` [Compound I-101] are more than 2500 nM and 500 to 1500 nM.
Regarding `Cc1sc2c(c1C)C(c1ccc(Cl)cc1)=N[C@@H](CC(=O)NCCOCCOCCOCCOCCOC1CCN(c3ncc(C(=O)N[C@H]4C(C)(C)[C@H](Oc5ccc(C#N)c(Cl)c5)C4(C)C)cn3)CC1)c1nnc(C)n1-2` [Compound I-8], the Kd in test [1] was in the range of 500 to 2500 nM. In test [2], this compound gave a GI50 of 500 to 1500 nM.
On the same counts, the results for `CCNC(=O)C[C@@H]1N=C(c2ccc(OCCOC3CCN(c4ncc(C(=O)N[C@H]5C(C)(C)[C@H](Oc6ccc(C#N)c(Cl)c6)C5(C)C)cn4)CC3)c(F)c2F)c2c(sc(C)c2C)-n2c(C)nnc21` [Compound I-73] are 500 to 2500 nM and 500 to 1500 nM.
For the compound `Cc1sc2c(c1C)C(c1ccc(Cl)cc1)=N[C@@H](CC(=O)NCCOCCOCCOC1CCN(c3ncc(C(=O)N[C@H]4C(C)(C)[C@H](Oc5ccc(C#N)c(Cl)c5)C4(C)C)cn3)CC1)c1nnc(C)n1-2` [Compound I-7], the Kd in test [1] lay in the range of 500 to 2500 nM. This compound returned a GI50 in test [2] of less than 500 nM.
In the same order, the values of `CCNC(=O)C[C@@H]1N=C(c2ccc(N3CCN(CC4CCN(c5ncc(C(=O)N[C@H]6C(C)(C)[C@H](Oc7ccc(C#N)c(Cl)c7)C6(C)C)cn5)CC4)CC3)cc2)c2c(sc(C)c2C)-n2c(C)nnc21` [Compound I-105, N-[3-(3-chloro-4-cyano-phenoxy)-2,2,4,4-tetramethyl-cyclobutyl]-2-[4-[[4-[4-[(9S)-9-[2-(ethylamino)-2-oxo-ethyl]-4,5,13-trimethyl-3-thia-1,8,11,12-tetrazatricyclo[8.3.0.02,6]trideca-2(6),4,7,10,12-pentaen-7-yl]phenyl]piperazin-1-yl]methyl]-1-piperidyl]pyrimidine-5-carboxamide] are 50 to 500 nM and less than 500 nM.
In the same order, the values of `CCNC(=O)C[C@@H]1N=C(c2ccc(OCCOC3CCN(c4ncc(C(=O)N[C@H]5C(C)(C)[C@H](Oc6ccc(C#N)c(Cl)c6)C5(C)C)cn4)CC3)cc2)c2c(sc(C)c2C)-n2c(C)nnc21` [Compound I-60, N-((1r,3r)-3-(3-chloro-4-cyanophenoxy)-2,2,4,4-tetramethylcyclobutyl)-2-(4-(2-(4-((S)-6-(2-(ethylamino)-2-oxoethyl)-2,3,9-trimethyl-6H-thieno[3,2-f][1,2,4]triazolo[4,3-a][1,4]diazepin-4-yl)phenoxy)ethoxy)piperidin-1-yl)pyrimidine-5-carboxamide] are 50 to 500 nM and 500 to 1500 nM.
In the same order, the values of `Cc1sc2c(c1C)C(c1ccc(CCCOC3CCN(c4ncc(C(=O)N[C@H]5C(C)(C)[C@H](Oc6ccc(C#N)c(Cl)c6)C5(C)C)cn4)CC3)cc1)=N[C@@H](C)c1nnc(C)n1-2` [Compound I-228, N-[3-(3-chloro-4-cyano-phenoxy)-2,2,4,4-tetramethyl-cyclobutyl]-2-[4-[3-[4-[(9S)-4,5,9,13-tetramethyl-3-thia-1,8,11,12-tetrazatricyclo [8.3.0.02,6]trideca-2(6),4,7,10,12-pentaen-7-yl]phenyl]propoxy]-1-piperidyl]pyrimidine-5-carboxamide] are 500 to 2500 nM and less than 500 nM.
In test [1], `CCNC(=O)C[C@@H]1N=C(c2ccc(CCCC3CCN(c4ncc(C(=O)N[C@H]5C(C)(C)[C@H](Oc6ccc(C#N)c(Cl)c6)C5(C)C)cn4)CC3)cc2)c2c(sc(C)c2C)-n2c(C)nnc21` [Compound I-95] displayed a Kd of more than 2500 nM. In test [2], this compound returned a concentration for 50% growth inhibition (GI50) of less than 500 nM.
In the same order, the values of `Cc1sc2c(c1C)C(c1ccc(CCCOC3CCN(c4ncc(C(=O)N[C@H]5C(C)(C)[C@H](Oc6ccc(C#N)c(Cl)c6)C5(C)C)cn4)CC3)cc1)=N[C@@H](CC(=O)NC1CC1)c1nnc(C)n1-2` [Compound I-102] are 500 to 2500 nM and less than 500 nM.
In the same order, the values of `Cc1sc2c(c1C)C(c1ccc(Cl)cc1)=N[C@@H](CC(=O)NCCN(C)c1ncc(C(=O)N[C@H]3C(C)(C)[C@H](Oc4ccc(C#N)c(Cl)c4)C3(C)C)cn1)c1nnc(C)n1-2` [Compound I-1, N-[3-(3-chloro-4-cyano-phenoxy)-2,2,4,4-tetramethyl-cyclobutyl]-2-[2-[[2-[(9S)-7-(4-chlorophenyl)-4,5,13-trimethyl-3-thia-1,8,11,12-tetrazatricyclo[8.3.0.02,6]trideca-2(6),4,7,10,12-pentaen-9-yl]acetyl]amino]ethyl-methyl-amino]pyrimidine-5-carboxamide] are 50 to 500 nM and less than 500 nM.
As for `CCNC(=O)C[C@@H]1N=C(c2ccc(N(C)CCN3CCN(c4ncc(C(=O)N[C@H]5C(C)(C)[C@H](Oc6ccc(C#N)c(Cl)c6)C5(C)C)cn4)CC3)cc2)c2c(sc(C)c2C)-n2c(C)nnc21` [Compound I-108], the Kd in test [1] was 50 to 500 nM. Further, the concentration for 50% growth inhibition (GI50) in test [2] is 500 to 1500 nM.
`Cc1sc2c(c1C)C(c1ccc(OCCOC3CCN(c4ncc(C(=O)N[C@H]5C(C)(C)[C@H](Oc6ccc(C#N)c(Cl)c6)C5(C)C)cn4)CC3)cc1)=N[C@@H](CC(=O)OC(C)(C)C)c1nnc(C)n1-2` [Compound I-235, tert-butyl 2-((S)-4-(4-(2-((1-(5-(((1r,3r)-3-(3-chloro-4-cyanophenoxy)-2,2,4,4-tetramethylcyclobutyl)carbamoyl)pyrimidin-2-yl)piperidin-4-yl)oxy)ethoxy)phenyl)-2,3,9-trimethyl-6H-thieno[3,2-f][1,2,4]triazolo[4,3-a][1,4]diazepin-6-yl)acetate] had a dissociation constant (Kd) in test [1] of more than 2500 nM. In test [2], this compound showed a GI50 of less than 500 nM.
On the same counts, the results for `Cc1sc2c(c1C)C(c1ccc(CCCOC3CCN(c4ncc(C(=O)N[C@H]5C(C)(C)[C@H](Oc6ccc(C#N)c(Cl)c6)C5(C)C)cn4)CC3)cc1)=N[C@@H](CC(=O)NC(C)C)c1nnc(C)n1-2` [Compound I-100] are more than 2500 nM and 500 to 1500 nM.
In the same order, the values of `CCNC(=O)C[C@@H]1N=C(c2ccc(OCCOC3CCN(c4ncc(C(=O)N[C@H]5C(C)(C)[C@H](Oc6ccc(C#N)c(Cl)c6)C5(C)C)cn4)CC3)cc2F)c2c(sc(C)c2C)-n2c(C)nnc21` [Compound I-75] are 500 to 2500 nM and less than 500 nM.
In the same order, the values of `CCNC(=O)C[C@@H]1N=C(c2ccc(N(C)C3CN(CC4CCN(c5ncc(C(=O)N[C@H]6C(C)(C)[C@H](Oc7ccc(C#N)c(Cl)c7)C6(C)C)cn5)CC4)C3)cc2)c2c(sc(C)c2C)-n2c(C)nnc21` [Compound I-119] are 50 to 500 nM and less than 500 nM.
On to `CCNC(=O)C[C@@H]1N=C(c2ccc(OCC3CN(c4ncc(C(=O)N[C@H]5C(C)(C)[C@H](Oc6ccc(C#N)c(Cl)c6)C5(C)C)cn4)C3)cc2)c2c(sc(C)c2C)-n2c(C)nnc21` [Compound I-71], for which, in test [1], the Kd is 50 to 500 nM. The compound further gave a GI50 in test [2] of less than 500 nM.

One may read the Kd as the free concentration of one partner at which half of the binding sites on the other are occupied at equilibrium, for simple one-to-one binding. Low readings indicate higher affinity, high ones lower affinity. A word on the GI50: it is the concentration that inhibits growth by half. Higher therefore signals less potent growth inhibition.
